Assay results from patent US20110071150A1 (priority 2009, published 2011).

Tested on: Jurkat IL-2 Production
Test: Jurkat IL-2 Production Assay
Format: cell-based
Settings: Homo sapiens, Jurkat cell (ATCC), 18-20 h incubation, PHA 5 μg/mL with 1% FBS, or PMA/Ionomycin with 30% FBS (table does not say which)
Protocol: Jurkat IL-2 Production Assay
Cell: Jurkat cell (ATCC) was grown in RPMI 1640 with 10% FBS and 1% penicillin/streptomycin. The cell density was kept at 1.2-1.8×10^6/mL in culture flask before seeding into culture plate, and the cell density in the plate was 0.5×10^6/[…]/well.
Culture media: RPMI 1640 with 1% FBS or 30% FBS for high serum assay.
Test compound: serial dilution was done in 100% DMSO, and intermediate dilution was done with RPMI 1640 medium with 1% FBS. The DMSO final concentration in culture well was 0.25%.
Stimulant: PHA (Sigma#L9017-10MG) was used for the assay with 1% FBS in culture medium, and added after 10 minutes exposure of cell to compound/DMSO. The PHA final concentration in culture well was 5 μg/mL. PMA (Sigma# P-8139 5MG)/Ionomycin (Sigma# 10634-5MG) was used for the assay with 30% FBS in culture medium, and added at same time point as the 1% FBS culture assay. The final concentration of PMA was 50 ng/mL, and Ionomycin final concentration was 500 ng/mL.
Incubation: at 37° C. with 5% CO2 and 95% humidity for 18 h˜20 h.
IC50: IC50 was calculated with the data analysis software XLfit4, General Pharmacology model 251.

Row | SMILES | IC50
1 | Cc1ccc(-c2nccs2)cc1-c1ccc2[nH]c(-c3c(F)cccc3F)cc2c1 [Example 25, 2-(2,6-Difluoro-phenyl)-5-(2-methyl-5-thiazol-2-yl-phenyl)-1H-indole] | 224 nM
2 | Cc1cnccc1-c1cc2cc(-c3nc(-c4ccccn4)sc3C)ccc2[nH]1 [Example 10, 2-(3-Methyl-pyridin-4-yl)-5-(5-methyl-2-pyridin-2-yl-thiazol-4-yl)-1H-indole] | 190 nM
3 | Cc1sc(-c2cccnc2)nc1-c1ccc2[nH]c(-c3cncnc3C(C)C)cc2c1 [Example 68, 2-(4-Isopropyl-pyrimidin-5-yl)-5-(5-methyl-2-pyridin-3-yl-thiazol-4-yl)-1H-indole] | 152 nM
4 | Cc1cc(C(N)=O)ccc1-c1ccc2[nH]c(-c3ccccc3Cl)cc2c1 [Example 128, 4-[2-(2-Chloro-phenyl)-1H-indol-5-yl]-3-methyl-benzamide] | 776 nM
5 | Cc1cc(C#N)ccc1-c1ccc2[nH]c(-c3sccc3C)cc2c1 [Example 146, methyl-4-(2-(3-methylthiophen-2-yl)-1H-indol-5-yl)benzonitrile] | 150 nM
6 | Cc1cc(C#N)ccc1-c1ccc2[nH]c(-c3ccccc3F)cc2c1 [Example 136, 4-(2-(2-fluorophenyl)-1H-indol-5-yl)-3-methylbenzonitrile] | 370 nM
7 | Cc1ccccc1-c1cc2cc(-c3nc(-c4ccccn4)sc3C)ccc2[nH]1 [Example 6, 5-(5-Methyl-2-pyridin-2-yl-thiazol-4-yl)-2-o-tolyl-1H-indole] | 611 nM
8 | Cc1cc(S(=O)(=O)N(C)C)ccc1-c1ccc2[nH]c(-c3ccccc3)c(C)c2c1 [Example 226, N,N,3-trimethyl-4-(3-methyl-2-phenyl-1H-indol-5-yl)benzenesulfonamide] | 602 nM
9 | COC(=O)c1ccc(-c2ccc3[nH]c(-c4c(F)cccc4F)cc3c2)c(Cl)c1 [Example 88, 4-[2-(2,6-Difluoro-phenyl)-1H-indol-5-yl]-3-chloro-benzoic acid methyl ester] | 908 nM
10 | Cc1cc(C#N)ccc1-c1ccc2[nH]c(-c3ccc(F)cc3F)cc2c1 [Example 141, 4-(2-(2,4-difluorophenyl)-1H-indol-5-yl)-3-methylbenzonitrile] | 660 nM
11 | Cc1cc(C#N)ccc1-c1ccc2[nH]c(-c3c(F)cccc3F)cc2c1 [Example 27, 4-[2-(2,6-Difluoro-phenyl)-1H-indol-5-yl]-3-methyl-benzonitrile] | 97 nM
12 | Cc1cccc(F)c1-c1cc2cc(-c3nc(-c4cccnc4)sc3C)ccc2[nH]1 [Example 220, 2-(2-Fluoro-6-methyl-phenyl)-5-(5-methyl-2-pyridin-3-yl-thiazol-4-yl)-1H-indole] | 24 nM
13 | COc1cc(C)c(-c2ccc3[nH]c(-c4c(F)cccc4F)c(C)c3c2)cn1 [Example 229, 2-(2,6-Difluoro-phenyl)-5-(6-methoxy-4-methyl-pyridin-3-yl)-3-methyl-1H-indole] | 164 nM
14 | Cc1sc(-c2cccnc2)nc1-c1ccc2[nH]c(-c3ccncc3F)cc2c1 [Example 64, 2-(3-Fluoro-pyridin-4-yl)-5-(5-methyl-2-pyridin-3-yl-thiazol-4-yl)-1H-indole] | 81 nM
15 | Cc1cc(S(=O)(=O)N2CCOCC2)ccc1-c1ccc2[nH]c(-c3c(F)cccc3Cl)cc2c1 [Example 169, 4-(4-(2-(2-chloro-6-fluorophenyl)-1H-indol-5-yl)-3-methylphenylsulfonyl)morpholine] | 117 nM

The next lines start with the values.

Row | IC50 | SMILES
16 | 139 nM | CCn1nc(C(F)(F)F)cc1-c1ccc2[nH]c(-c3ccnc(OC)c3Cl)cc2c1 [Example 194, 2-(3-chloro-2-methoxypyridin-4-yl)-5-(1-ethyl-3-(trifluoromethyl)-1H-pyrazol-5-yl)-1H-indole]
17 | 31 nM | CCn1nc(C(F)(F)F)cc1-c1ccc2[nH]c(-c3c(F)cc(OC)cc3Cl)cc2c1 [Example 203, 2-(2-chloro-6-fluoro-4-methoxyphenyl)-5-(1-ethyl-3-(trifluoromethyl)-1H-pyrazol-5-yl)-1H-indole]
18 | 87 nM | COc1nccc(-c2cc3cc(-c4cc(C(F)(F)F)nn4C)ccc3[nH]2)c1Cl [Example 43, 2-(3-Chloro-2-methoxy-pyridin-4-yl)-5-(2-methyl-5-trifluoromethyl-2H-pyrazol-3-yl)-1H-indole]
19 | 22 nM | CCc1cc(Cl)ncc1-c1ccc2[nH]c(-c3c(F)cccc3Cl)cc2c1 [Example 174, 5-(6-Chloro-4-ethyl-pyridin-3-yl)-2-(2-chloro-6-fluoro-phenyl)-1H-indole]
20 | 116 nM | Cn1nc(C(F)(F)F)cc1-c1ccc2[nH]c(-c3ccc(F)cc3Cl)cc2c1 [Example 35, 2-(2-Chloro-4-fluoro-phenyl)-5-(2-methyl-5-trifluoromethyl-2H-pyrazol-3-yl)-1H-indole]
21 | 949 nM | Cc1sc(C(C)C)nc1-c1ccc2[nH]c(-c3ccccc3Cl)cc2c1 [Example 69, 2-(2-Chloro-phenyl)-5-(2-isopropyl-5-methyl-thiazol-4-yl)-1H-indole]
22 | 728 nM | Cc1cc(C(=O)O)ccc1-c1cc2cc(-c3cc(C(F)(F)F)nn3C)ccc2[nH]1 [Example 40]
23 | 57 nM | COc1cc(F)c(-c2cc3cc(-c4ccc(C#N)cc4C)ccc3[nH]2)c(Cl)c1 [Example 202, 4-(2-(2-chloro-6-fluoro-4-methoxyphenyl)-1H-indol-5-yl)-3-methylbenzonitrile]
24 | 111 nM | CCn1nc(C(F)(F)F)cc1-c1ccc2[nH]c(-c3cnc(OC)cc3C)cc2c1 [Example 190, 5-(1-ethyl-3-(trifluoromethyl)-1H-pyrazol-5-yl)-2-(6-methoxy-4-methylpyridin-3-yl)-1H-indole]
25 | 129 nM | CCn1nc(C(F)(F)F)cc1-c1ccc2[nH]c(-c3ccc(OC)nc3C)cc2c1 [Example 193, 5-(1-ethyl-3-(trifluoromethyl)-1H-pyrazol-5-yl)-2-(6-methoxy-2-methylpyridin-3-yl)-1H-indole]
26 | 142 nM | COc1nccc(-c2cc3cc(-c4ccc(C#N)cc4C)ccc3[nH]2)c1Cl [Example 140, 4-(2-(3-chloro-2-methoxypyridin-4-yl)-1H-indol-5-yl)-3-methylbenzonitrile]
27 | 24 nM | CCn1nc(C(F)(F)F)cc1-c1ccc2[nH]c(C3CCCCC3)cc2c1 [Example 196, 2-cyclohexyl-5-(1-ethyl-3-(trifluoromethyl)-1H-pyrazol-5-yl)-1H-indole]
28 | 33 nM | CCOc1cc(C)c(-c2ccc3[nH]c(-c4c(F)cccc4Cl)cc3c2)cn1 [Example 164, 2-(2-chloro-6-fluorophenyl)-5-(6-ethoxy-4-methylpyridin-3-yl)-1H-indole]
29 | 83 nM | COc1ccc(-c2cc3cc(-c4cc(C(F)(F)F)nn4C)ccc3[nH]2)c(C)n1 [Example 38, 2-(6-Methoxy-2-methyl-pyridin-3-yl)-5-(2-methyl-5-trifluoromethyl-2H-pyrazol-3-yl)-1H-indole]
30 | 198 nM | Cn1nc(-c2cccnc2)cc1-c1ccc2[nH]c(-c3c(F)cccc3F)cc2c1 [Example 19, 2-(2,6-Difluoro-phenyl)-5-(2-methyl-5-pyridin-3-yl-2H-pyrazol-3-yl)-1H-indole]
31 | 148 nM | COC(=O)c1ccc(-c2cc3cc(-c4cc(C(F)(F)F)nn4C)ccc3[nH]2)c(C)c1 [Example 39, 3-Methyl-4-[5-(2-methyl-5-trifluoromethyl-2H-pyrazol-3-yl)-1H-indol-2-yl]-benzoic acid methyl ester]
